Source: patent US11433070B2, “Synergistic anti-inflammatory compositions” (The Procter & Gamble Company, priority 2019, dated 2022)

Experiments:
[1] = system: PGE2 release from TERT keratinocytes (tKC); experiment: PGE2 assay: inhibition of PGE2 release from UVB-stressed keratinocytes, normalized to ATP; assay type: cell-based, human; conditions: for AVG PGE2 % Control / AVG PGE2 % Inhibition: piroctone olamine 1E-7% (w/v), alone or combined (observed), 15 mJ/cm2 UVB, 18-24 h; for Inhibiting PGE2 release from keratinocytes, individually (in words): each material alone
Description: Inhibiting the Cell's Inflammation Response to a Stressor-Prostaglandin E2 (“PGE2”) Assay. […] PGE2 is a hormone-like substance that is known to participate in modulation of inflammation. Cellular inflammation is associated with a variety of hair, skin and scalp conditions, and thus inhibiting PGE2 activation vis-à-vis cellular inflammation may help treat these types of hair, skin and scalp conditions. TERT keratinocytes (tKC) are human keratinocytes which have been transfected with the human telomerase reverse transcriptase gene to immortalize the cells. They are obtained from Jerry Shay, University of Texas, Southwestern and plated at 40,000 cells/well into 24-well plates in 1 ml/well volume. EpiLife Medium (Life Technologies cat #[…]500) supplemented with keratinocyte growth supplement (Life technologies cat #S-001-5) is used as the assay media. The cells are grown to confluence/near confluence, (typically 24 hours after plating 40,000 cells/well in 24 well plate) and then subjected to 15 mJ/cm^2 UVB-stress (typically 14-16 exposure time in BioSun). […] The supernatant is removed from each well, and the cells are rinsed with 2 ml/well medium (without supplements). A Cell Titer-Glo assay (Promega cat #G7571; Madison Wis.) is used to measure ATP activity, which is conducted on the cells for normalization. The supernatant is tested in a PGE2 assay (Prostaglandin E2 Assay kit from Cisbio Bioassays cat #62P2APEB) according to the manufacturer's instructions. The PGE2 results are normalized to ATP activity. The PGE2 quantitation (pg/mL) from the supernatant is divided by the normalization factor (treatment ATP/control ATP). […] Synergy factor is simply the ratio of observed combination/expected combination.

[2] = cited from earlier work
TERT keratinocytes (tKC) = experiment: Cell Titer-Glo assay measuring ATP activity, used for normalization; assay type: cell-based, human; conditions: example calculation; vehicle control 704567
Description: TERT keratinocytes (tKC) are human keratinocytes which have been transfected with the human telomerase reverse transcriptase gene to immortalize the cells. They are obtained from Jerry Shay, University of Texas, Southwestern and plated at 40,000 cells/well into 24-well plates in 1 ml/well volume. EpiLife Medium (Life Technologies cat #[…]500) supplemented with keratinocyte growth supplement (Life technologies cat #S-001-5) is used as the assay media. The cells are grown to confluence/near confluence, (typically 24 hours after plating 40,000 cells/well in 24 well plate) and then subjected to 15 mJ/cm^2 UVB-stress (typically 14-16 exposure time in BioSun). […] The supernatant is removed from each well, and the cells are rinsed with 2 ml/well medium (without supplements). A Cell Titer-Glo assay (Promega cat #G7571; Madison Wis.) is used to measure ATP activity, which is conducted on the cells for normalization. The supernatant is tested in a PGE2 assay (Prostaglandin E2 Assay kit from Cisbio Bioassays cat #62P2APEB) according to the manufacturer's instructions. The PGE2 results are normalized to ATP activity. The PGE2 quantitation (pg/mL) from the supernatant is divided by the normalization factor (treatment ATP/control ATP).

[3] = 1:1 azoxystrobin:PO block, azoxystrobin 1E-7%
[4] = 1:10 azoxystrobin:PO block, azoxystrobin 1E-8%
[5] = 1:50 azoxystrobin:PO block, azoxystrobin 2E-9%
[6] = 4:1 azoxystrobin:PO block, azoxystrobin 4E-7%

| SMILES | AVG PGE2 % Control [1, 3] | AVG PGE2 % Inhibition [1, 3] | AVG PGE2 % Control [1, 4] | AVG PGE2 % Inhibition [1, 4] | AVG PGE2 % Control [1, 5] | AVG PGE2 % Inhibition [1, 5] | AVG PGE2 % Control [1, 6] | AVG PGE2 % Inhibition [1, 6] | Inhibiting PGE2 release from keratinocytes, individually (in words) [1] | % inhibition (PGE2) ([1]; example calculation vs vehicle control) | Normalized PGE2 value ([1]; example calculation, PGE2 quantitation divided by normalization factor, control 2458) | PGE2 quantitation ([1]; example calculation, supernatant, before ATP normalization, vehicle control 2458 pg/mL) | Solubility in water (in words) [2] | Luminescence in ATP assay (TERT keratinocytes (tKC)) |
| --- | --- | --- | --- | --- | --- | --- | --- | --- | --- | --- | --- | --- | --- | --- |
| CO/C=C(/C(=O)OC)c1ccccc1Oc1cc(Oc2ccccc2C#N)ncn1 [azoxystrobin] | 92% | 8% | 99% | 1% | 99% | 1% | 87% | 13% | relatively weak | 8% | 2261 | 2347 pg/mL | low solubility in water | 678903 |
| Cc1cc(CC(C)CC(C)(C)C)n(O)c(=O)c1.NCCO (centres unmarked) [piroctone olamine, 1-Hydroxy-4-methyl-6-(2,4,4-trimethylpentyl)-2-pyridone monoethanolamine salt] | 96.5% | 3.5% | 96.2% | 3.8% | 96.2% | 3.8% | 96.2% | 3.8% | relatively weak |  |  |  |  |  |
